Source: patent US11175289B2, “Application of TRPM8 protein, related peptide fragment and their antibodies” (priority 2016, dated 2021)
Ends that are not written are not given here. * marks the point of attachment. Biotin = O=C1N[C@H]2[C@H](CS[C@H]2CCCCC(=O)*)N1

System: TRPM8 protein and TRPM8 related peptide fragments
Assay: Antibody identification of monoclonal antibodies
Assay type: binding, human
Conditions: monoclonal antibody against the named antigen
Description: Freund's adjuvant is adopted for respectively immunizing the mice.
2. Detection of TRPM8 antibody: utilizing a radioimmunoassay (RIA) method.

With SEEMRHRFRQLDTKLNDLKG (HUMAN) [T-14] the Affinity was 10^12 L/mol and the Specificity was “High”.
“CFTGNE SKPLCV ELDEH NLPRFPE (CFTGNESKPLCVELDEHNLPRFPE; HUMAN) [T-9]” was tested, and the Affinity was 10^12 L/mol and the Specificity was “High”.
“CKEKN MESSV CCFKN EDNET (CKEKNMESSVCCFKNEDNET; HUMAN) [T-7]” was tested, and the Affinity was 10^12 L/mol and the Specificity was “High”.
In the case of Biotin-DEVRQWYVNGVNYFTD [T-5], the Affinity is reported as 10^12 L/mol and the Specificity is reported as “High”.
For Biotin-DGTTYDFAHCTFTGNESKPL [T-3], the Affinity was 10^12 L/mol and the Specificity was “High”.
VEVEDALTSSAVKEKLVRF (HUMAN) [T-17] was tested, and the Affinity was 10^12 L/mol and the Specificity was “High”.
For “NRRNDTLDSTRTLYSSASRSTDLSYS (HUMAN) [T-16]”, the Affinity was 10^12 L/mol and the Specificity was “High”.
With “CSEEM RHRFR QLDTK LNDLKG (CSEEMRHRFRQLDTKLNDLKG; HUMAN) [T-8]” the Affinity was 10^12 L/mol and the Specificity was “High”.
In the case of Biotin-FKNEDNETLAWEGVMKENYL [T-2], the Affinity is reported as 10^12 L/mol and the Specificity is reported as “High”.
For “VEVED ALTSS AVKEK LVRFC (VEVEDALTSSAVKEKLVRFC; HUMAN) [T-11]”, the Affinity was 10^12 L/mol and the Specificity was “High”.
For Biotin-LTVIKMEEAGDEIVSNA [T-6], the Affinity was 10^12 L/mol and the Specificity was “High”.
Biotin-VSRNLGPKIIMLQ [T-4] was tested, and the Affinity was 10^12 L/mol and the Specificity was “High”.
With “CEMDI ELHDV SPITRH (CEMDIELHDVSPITRH; HUMAN) [T-12]” the Affinity was 10^12 L/mol and the Specificity was “High”.
FTGNESKPLCVELDEHNLPRFPE (HUMAN) [T-15] was tested, and the Affinity was 10^12 L/mol and the Specificity was “High”.
KEKNMESSVCCFKNEDNET (HUMAN) [T-13] was tested, and the Affinity was 10^12 L/mol and the Specificity was “High”.
With “NRRND TLDST RTLYSS (NRRNDTLDSTRTLYSS; HUMAN) [T-10]” the Affinity was 10^12 L/mol and the Specificity was “High”.
With EMDIELHDVSPITRH (HUMAN) [T-18] the Affinity was 10^12 L/mol and the Specificity was “High”.
